# Assay results: PubChem BioAssay (NCI)
#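 Five concentrations, 48 hours, 96-well plates. TGI marks complete inhibition of growth.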
# What was measured:
# Test in all cases: DTP human tumour cell line panel, 48 h
# [1] = tested on: A549 NSCLC
# [2] = tested on: SK-MEL-5 melanoma
# [3] = tested on: UACC-62 melanoma
# [4] = tested on: HCT-15 colon
# [5] = tested on: A498 renal
# [6] = tested on: COLO 205 colon
# [7] = tested on: MALME-3M melanoma
# [8] = tested on: CCRF-CEM leukemia
# [9] = tested on: MCF7 breast
# [10] = tested on: SF-539 CNS
# [11] = tested on: SF-295 CNS
# [12] = tested on: HOP-92 NSCLC
# [13] = tested on: SF-268 CNS
# [14] = tested on: OVCAR-3 ovarian
# [15] = tested on: RPMI-8226 leukemia
# [16] = tested on: KM12 colon
# [17] = tested on: HCT-116 colon
# [18] = tested on: RXF 393 renal
# [19] = tested on: UACC-257 melanoma
# [20] = tested on: SNB-75 CNS
# [21] = tested on: SK-OV-3 ovarian
# [22] = tested on: NCI-H460 lung
# [23] = tested on: IGROV1 ovarian
# [24] = tested on: UO-31 renal
# [25] = tested on: SN12C renal
# [26] = tested on: MDA-N
# [27] = tested on: U251 CNS
# [28] = tested on: M14 melanoma
# [29] = tested on: NCI/ADR-RES ovarian
# [30] = tested on: LOX IMVI melanoma
# [31] = tested on: K-562 leukemia
# [32] = tested on: 786-0 renal
# [33] = tested on: HT29 colon
# [34] = tested on: MDA-MB-231 breast
# [35] = tested on: SR leukemia
# [36] = tested on: NCI-H226 lung
# [37] = tested on: TK-10 renal
# [38] = tested on: PC-3 prostate
# [39] = tested on: DU-145 prostate
# [40] = tested on: NCI-H522 lung
# [41] = tested on: EKVX NSCLC
# [42] = tested on: MDA-MB-435
# [43] = tested on: HCC-2998 colon
# [44] = tested on: SNB-19 CNS
# [45] = tested on: OVCAR-8 ovarian
# [46] = tested on: OVCAR-4 ovarian
# [47] = tested on: SK-MEL-2 melanoma
# [48] = tested on: SK-MEL-28 melanoma
# [49] = tested on: ACHN renal
# [50] = tested on: T-47D breast
# [51] = tested on: HL-60(TB) leukemia
# [52] = tested on: CAKI-1 renal
# [53] = tested on: SW-620 colon
# [54] = tested on: HOP-62 NSCLC
# [55] = tested on: MOLT-4 leukemia
# [56] = tested on: NCI-H23 lung
# [57] = tested on: OVCAR-5 ovarian
# [58] = tested on: HS 578T breast
# [59] = tested on: BT-549 breast
smiles,measurement,setting,value
CSC(N)=Nc1cccc2ccccc12,TGI,[1],> 10 µM
same,TGI,[2],> 10 µM
same,TGI,[3],> 10 µM
same,TGI,[4],> 10 µM
same,TGI,[5],> 10 µM
same,TGI,[6],> 10 µM
same,TGI,[7],> 10 µM
same,TGI,[8],> 10 µM
same,TGI,[9],> 10 µM
same,TGI,[10],> 10 µM
same,TGI,[11],> 10 µM
same,TGI,[12],> 10 µM
same,TGI,[13],> 10 µM
same,TGI,[14],> 10 µM
same,TGI,[15],> 10 µM
same,TGI,[16],> 10 µM
same,TGI,[17],> 10 µM
same,TGI,[18],> 10 µM
same,TGI,[19],> 10 µM
same,TGI,[20],> 10 µM
same,TGI,[21],> 10 µM
same,TGI,[22],> 10 µM
same,TGI,[23],> 10 µM
same,TGI,[24],> 10 µM
same,TGI,[25],> 10 µM
same,TGI,[26],> 10 µM
same,TGI,[27],> 10 µM
same,TGI,[28],> 10 µM
same,TGI,[29],> 10 µM
same,TGI,[30],> 10 µM
same,TGI,[31],> 10 µM
same,TGI,[32],> 10 µM
same,TGI,[33],> 10 µM
same,TGI,[34],> 10 µM
same,TGI,[35],> 10 µM
same,TGI,[36],> 10 µM
same,TGI,[37],> 10 µM
same,TGI,[38],> 10 µM
same,TGI,[39],> 10 µM
same,TGI,[40],> 10 µM
same,TGI,[41],> 10 µM
same,TGI,[42],> 10 µM
same,TGI,[43],> 10 µM
same,TGI,[44],> 10 µM
same,TGI,[45],> 10 µM
same,TGI,[46],> 10 µM
same,TGI,[47],> 10 µM
same,TGI,[48],> 10 µM
same,TGI,[49],> 10 µM
same,TGI,[50],> 10 µM
same,TGI,[51],> 10 µM
same,TGI,[52],> 10 µM
same,TGI,[53],> 10 µM
same,TGI,[54],> 10 µM
same,TGI,[55],> 10 µM
same,TGI,[56],> 10 µM
NC(=Nc1ccc(Cl)cc1)c1ccccc1N,TGI,[1],> 100 µM
same,TGI,[2],> 100 µM
same,TGI,[3],> 100 µM
same,TGI,[4],> 100 µM
same,TGI,[5],> 100 µM
same,TGI,[6],> 100 µM
same,TGI,[7],> 100 µM
same,TGI,[8],> 100 µM
same,TGI,[9],> 100 µM
same,TGI,[11],> 100 µM
same,TGI,[57],> 100 µM
same,TGI,[12],> 100 µM
same,TGI,[13],> 100 µM
same,TGI,[14],> 100 µM
same,TGI,[15],> 100 µM
same,TGI,[16],> 100 µM
same,TGI,[17],> 100 µM
same,TGI,[18],> 100 µM
same,TGI,[19],> 100 µM
same,TGI,[20],> 100 µM
same,TGI,[21],> 100 µM
same,TGI,[22],> 100 µM
same,TGI,[23],> 100 µM
same,TGI,[58],> 100 µM
same,TGI,[24],> 100 µM
same,TGI,[26],> 100 µM
same,TGI,[27],> 100 µM
same,TGI,[28],> 100 µM
same,TGI,[29],> 100 µM
same,TGI,[30],> 100 µM
same,TGI,[31],> 100 µM
same,TGI,[32],> 100 µM
same,TGI,[33],> 100 µM
same,TGI,[34],> 100 µM
same,TGI,[35],> 100 µM
same,TGI,[36],> 100 µM
same,TGI,[37],> 100 µM
same,TGI,[38],> 100 µM
same,TGI,[39],> 100 µM
same,TGI,[40],> 100 µM
same,TGI,[41],> 100 µM
same,TGI,[42],> 100 µM
same,TGI,[43],> 100 µM
same,TGI,[44],> 100 µM
same,TGI,[45],> 100 µM
same,TGI,[46],> 100 µM
same,TGI,[48],> 100 µM
same,TGI,[49],> 100 µM
same,TGI,[51],> 100 µM
same,TGI,[52],> 100 µM
same,TGI,[53],> 100 µM
same,TGI,[54],> 100 µM
same,TGI,[59],> 100 µM
same,TGI,[55],> 100 µM
same,TGI,[56],> 100 µM
O=C1Cc2c([nH]c3ccc(Cl)cc23)-c2ccccc2N1,TGI,[1],> 100 µM
same,TGI,[2],> 100 µM
same,TGI,[3],> 100 µM
same,TGI,[5],> 100 µM
same,TGI,[6],> 100 µM
same,TGI,[7],> 100 µM
same,TGI,[9],> 100 µM
same,TGI,[11],> 100 µM
same,TGI,[12],> 100 µM
same,TGI,[13],> 100 µM
same,TGI,[15],> 100 µM
same,TGI,[17],> 100 µM
same,TGI,[20],> 100 µM
same,TGI,[21],> 100 µM
same,TGI,[22],> 100 µM
same,TGI,[23],> 100 µM
same,TGI,[58],> 100 µM
same,TGI,[24],> 100 µM
same,TGI,[25],> 100 µM
same,TGI,[26],> 100 µM
same,TGI,[27],> 100 µM
same,TGI,[28],> 100 µM
same,TGI,[29],> 100 µM
same,TGI,[30],> 100 µM
same,TGI,[32],> 100 µM
same,TGI,[34],> 100 µM
same,TGI,[36],> 100 µM
same,TGI,[37],> 100 µM
same,TGI,[40],> 100 µM
same,TGI,[42],> 100 µM
same,TGI,[44],> 100 µM
same,TGI,[45],> 100 µM
same,TGI,[46],> 100 µM
same,TGI,[48],> 100 µM
same,TGI,[49],> 100 µM
same,TGI,[50],> 100 µM
same,TGI,[56],> 100 µM
CNC(=O)CNC(=O)CCC(=O)OC,TGI,[1],> 100 µM
same,TGI,[2],> 100 µM
same,TGI,[3],> 100 µM
same,TGI,[5],> 100 µM
same,TGI,[6],> 100 µM
same,TGI,[9],> 100 µM
same,TGI,[10],> 100 µM
same,TGI,[11],> 100 µM
same,TGI,[57],> 100 µM
same,TGI,[13],> 100 µM
same,TGI,[14],> 100 µM
same,TGI,[16],> 100 µM
same,TGI,[17],> 100 µM
same,TGI,[18],> 100 µM
same,TGI,[21],> 100 µM
same,TGI,[22],> 100 µM
same,TGI,[24],> 100 µM
same,TGI,[25],> 100 µM
same,TGI,[26],> 100 µM
same,TGI,[27],> 100 µM
same,TGI,[28],> 100 µM
same,TGI,[29],> 100 µM
same,TGI,[31],> 100 µM
same,TGI,[32],> 100 µM
same,TGI,[33],> 100 µM
same,TGI,[34],> 100 µM
same,TGI,[37],> 100 µM
same,TGI,[38],> 100 µM
same,TGI,[39],> 100 µM
same,TGI,[40],> 100 µM
same,TGI,[42],> 100 µM
same,TGI,[44],> 100 µM
same,TGI,[45],> 100 µM
same,TGI,[46],> 100 µM
same,TGI,[47],> 100 µM
same,TGI,[48],> 100 µM
same,TGI,[49],> 100 µM
same,TGI,[50],> 100 µM
same,TGI,[52],> 100 µM
same,TGI,[53],> 100 µM
same,TGI,[54],> 100 µM
same,TGI,[55],> 100 µM
same,TGI,[56],> 100 µM
COc1ccc([C@H]2[C@H](C)C3=Nc4ccccc4CN32)cc1,TGI,[1],> 100 µM
same,TGI,[2],> 100 µM
same,TGI,[3],> 100 µM
same,TGI,[4],> 100 µM
same,TGI,[5],> 100 µM
same,TGI,[6],> 100 µM
same,TGI,[7],> 100 µM
same,TGI,[9],> 100 µM
same,TGI,[10],> 100 µM
same,TGI,[11],> 100 µM
same,TGI,[57],> 100 µM
same,TGI,[12],> 100 µM
same,TGI,[13],> 100 µM
same,TGI,[14],> 100 µM
same,TGI,[15],> 100 µM
same,TGI,[16],> 100 µM
same,TGI,[17],> 100 µM
same,TGI,[18],> 100 µM
same,TGI,[19],> 100 µM
same,TGI,[22],> 100 µM
same,TGI,[23],> 100 µM
same,TGI,[58],> 100 µM
same,TGI,[24],> 100 µM
same,TGI,[25],> 100 µM
same,TGI,[26],47.2 µM
same,TGI,[27],> 100 µM
same,TGI,[28],> 100 µM
same,TGI,[29],> 100 µM
same,TGI,[30],> 100 µM
same,TGI,[31],> 100 µM
same,TGI,[32],> 100 µM
same,TGI,[33],> 100 µM
same,TGI,[34],> 100 µM
same,TGI,[35],> 100 µM
same,TGI,[36],> 100 µM
same,TGI,[37],> 100 µM
same,TGI,[38],> 100 µM
same,TGI,[39],> 100 µM
same,TGI,[40],> 100 µM
same,TGI,[41],> 100 µM
same,TGI,[42],> 100 µM
same,TGI,[43],> 100 µM
same,TGI,[44],> 100 µM
same,TGI,[45],> 100 µM
same,TGI,[46],> 100 µM
same,TGI,[47],> 100 µM
same,TGI,[48],> 100 µM
same,TGI,[49],> 100 µM
same,TGI,[51],> 100 µM
same,TGI,[52],> 100 µM
same,TGI,[53],> 100 µM
same,TGI,[54],> 100 µM
same,TGI,[59],> 100 µM
same,TGI,[55],> 100 µM
same,TGI,[56],> 100 µM
